# “And” between values parts separate entries of the source, which are not always exact repeats. Identical values can stand only once.
# Tests used:
# FAP = target: T1, FAP (Homo sapiens, UniProt Q12884); experiment: Saturation binding on FAP+ CAFs; details: for Kd: 0.1 to 10 nM radioligand
# T1 construct: the CAF cells overexpressing FAP were seeded at a density of 0.8-1 million cells per well; host or cells: hTERT PF179T prostate cancer-associated fibroblasts
# T1 sequence (Q12884 1-760): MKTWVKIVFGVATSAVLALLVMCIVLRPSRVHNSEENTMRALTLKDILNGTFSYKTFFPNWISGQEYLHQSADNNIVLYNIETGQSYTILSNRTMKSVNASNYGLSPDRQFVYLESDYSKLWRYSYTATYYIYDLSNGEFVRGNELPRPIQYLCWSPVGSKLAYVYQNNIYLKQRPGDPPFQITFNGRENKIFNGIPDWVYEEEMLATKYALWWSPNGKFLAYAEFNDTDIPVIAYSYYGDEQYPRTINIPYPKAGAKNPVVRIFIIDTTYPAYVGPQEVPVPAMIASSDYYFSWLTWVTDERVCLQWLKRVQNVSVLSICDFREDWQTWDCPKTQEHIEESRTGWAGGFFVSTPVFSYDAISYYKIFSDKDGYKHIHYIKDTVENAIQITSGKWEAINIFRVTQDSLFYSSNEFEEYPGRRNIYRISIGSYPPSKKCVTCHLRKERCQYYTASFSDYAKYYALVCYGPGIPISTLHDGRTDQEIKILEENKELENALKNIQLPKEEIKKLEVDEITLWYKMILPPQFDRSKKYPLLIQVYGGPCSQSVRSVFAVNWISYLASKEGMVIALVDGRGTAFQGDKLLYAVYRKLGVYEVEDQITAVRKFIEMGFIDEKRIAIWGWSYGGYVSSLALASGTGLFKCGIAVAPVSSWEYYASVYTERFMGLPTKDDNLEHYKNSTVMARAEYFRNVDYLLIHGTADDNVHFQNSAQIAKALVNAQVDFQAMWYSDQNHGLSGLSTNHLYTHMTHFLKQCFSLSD
# Protocol: For receptor saturation studies, FAP^+ CAFs were incubated with 0.1 to 10 nM of the radioligands. For internalization studies, approximately 2.5 pmol of the radioligands were added to CAFs followed by incubation for 15, 30, 60, 90, 120, 180 and 240 min for the ^68Ga-labeled or 30, 60, 120, 240 and 360 min for the ^177Lu-labeled radioligands at 37 °C, 5% CO2. For the externalization studies, approximately 2.5 pmol of the ^177Lu-labeled radioligands were added to CAFs followed by incubation for 2 h at 37 °C, 5% CO2. The amount of externalized activity was measured at 0, 10, 20, 30, 60, 120, 240, and 1440 min (Supplemental Data).
# For receptor saturation analysis, the CAF cells overexpressing FAP were seeded at a density of 0.8-1 million cells per well in 6-well plates, pre-coated with BME (Cultrex Reduced Growth Factor Basement Membrane Extract, RGF BME, R&D System, Minneapolis, USA) to enhance cell attachment. The cells were incubated overnight with medium (EMEM supplemented and containing 10% FBS, 100 U/mL penicillin and 100 μg/mL streptomycin). The next day, the medium was removed and the cells were incubated for 30 minutes at 37 °C, with 0.8 mL of fresh medium. Afterwards, the plates were placed on ice for 30 minutes followed by incubation with increasing concentrations of ^68/natGa- and ^177/natLu-labelled DOTAGA.Glu.(FAPI)2 and DO3A.Glu.( FAPI)2 (0.1-10 nM final concentration in the wells). After the addition of the radioligands, the cells were incubated for 120 minutes at 4 °C. Non-specific binding was determined in the presence of UAMC1110 at a final concentration of 1 μM. After the completion of the incubation, the cells were washed twice with ice-cold PBS, followed by solubilization with 1 M NaOH. The cell-associated radioactivity was measured using a gamma-counter. Specific binding was plotted against the total molar concentration of the added radiotracer. The Kd values and the concentration of the radioligand required to saturate the receptors (Bmax) were determined by nonlinear regression using GraphPad (Prism 8 Graph Pad Software, San Diego, CA). For all the cell studies the values are normalized for 1x10^6 cells per well and all data are from two independent experiments with triplicates in each experiment.
# [1] = cited from earlier work
# [2] = listed as 177/natLu-DO3A.Glu.(FAPI)2
# [3] = listed as 177/natLu-DOTAGA.Glu.(FAPI)2
Kd (FAP; [2]),Bmax (FAP; [2]),Kd (FAP; [3]),Bmax (FAP; [3]),Compound,"absorbed dose left colon ([1]; human dosimetry, mean) [Gy/GBq]","absorbed dose right colon ([1]; human dosimetry, mean) [Gy/GBq]",biological half-life in bone metastases ([1]; human studies) [h],biological half-life in soft tissue metastases ([1]; human studies) [h]
0.7 nM and 0.72 nM,0.4 ± 0.02 nM and 0.37 ± 0.02 nM,–,–,N#C[C@@H]1CC(F)(F)CN1C(=O)CNC(=O)c1ccnc2ccc(OCCCCNC(=O)CC[C@H](NC(=O)CN3CCN(CC(=O)[O-])CCN(CC(=O)[O-])CCN(CC(=O)[O-])CC3)C(=O)NCCCCOc3ccc4nccc(C(=O)NCC(=O)N5CC(F)(F)C[C@H]5C#N)c4c3)cc12.[177Lu+3] [[^177Lu]Lu-DO3A.Glu.(FAPI)2],–,–,–,–
–,–,0.7 nM and 0.68 nM,0.4 ± 0.02 nM and 0.36 ± 0.02 nM,N#C[C@@H]1CC(F)(F)CN1C(=O)CNC(=O)c1ccnc2ccc(OCCCCNC(=O)CC[C@H](NC(=O)CCC(C(=O)O)N3CCN(CC(=O)[O-])CCN(CC(=O)[O-])CCN(CC(=O)[O-])CC3)C(=O)NCCCCOc3ccc4nccc(C(=O)NCC(=O)N5CC(F)(F)C[C@H]5C#N)c4c3)cc12.[177Lu+3] (some centres unmarked) [[^177Lu]Lu-DOTAGA.Glu.(FAPI)2],0.31 ± 0.12,0.22 ± 0.09,19.5 ± 7.3,22.1 ± 6.7

# Source: publication PMC12860872, “Preclinical evaluation of DOTAGA.Glu.(FAPI)2 and DO3A.Glu.(FAPI)2 as theranostics with human dosimetry extrapolation to lutetium-177 and terbium-161 analogs” (European Journal of Nuclear Medicine and Molecular Imaging, 2025)
